IC50 data for 13 compounds are collected here from patent US20100144733A1, “Compounds, compositions and methods comprising heteroaromatic derivatives” (Institute for OneWorld Health, priority 2008, published 2010).

Assay [1] has as its target T1, CFTR (Homo sapiens, UniProt P13569).
T1 construct: endogenous in cells; host or cells: T84 human colonic cells (ECACC)
In words: T84 assay (FLIPR membrane potential dye, forskolin/IBMX-stimulated CFTR channel activity). It counts as cell-based. The conditions noted are these: for IC50: imidazole and triazole-containing compounds (Tables 13, 14, 14′), read-out: IC50 (μM) (T84 assay). The procedure, abridged:
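Fluorescence from a membrane potential dye in T84 monolayers (HBSS with 10 mM Hepes) is followed each second for 150 s. Cells are exposed to test compound during the 45 min dye loading, then challenged with forskolin (10 μM) and IBMX (100 μM) to open CFTR. Inhibitors suppress the depolarization-driven fluorescence increase.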

For assay [2], the target named is T2, CHO-CFTR cell line (Homo sapiens, UniProt P13569).
T2 construct: expressed in transfected cells; host or cells: CHO (CHO-CFTR cell line)
T2 sequence (P13569 whole entry): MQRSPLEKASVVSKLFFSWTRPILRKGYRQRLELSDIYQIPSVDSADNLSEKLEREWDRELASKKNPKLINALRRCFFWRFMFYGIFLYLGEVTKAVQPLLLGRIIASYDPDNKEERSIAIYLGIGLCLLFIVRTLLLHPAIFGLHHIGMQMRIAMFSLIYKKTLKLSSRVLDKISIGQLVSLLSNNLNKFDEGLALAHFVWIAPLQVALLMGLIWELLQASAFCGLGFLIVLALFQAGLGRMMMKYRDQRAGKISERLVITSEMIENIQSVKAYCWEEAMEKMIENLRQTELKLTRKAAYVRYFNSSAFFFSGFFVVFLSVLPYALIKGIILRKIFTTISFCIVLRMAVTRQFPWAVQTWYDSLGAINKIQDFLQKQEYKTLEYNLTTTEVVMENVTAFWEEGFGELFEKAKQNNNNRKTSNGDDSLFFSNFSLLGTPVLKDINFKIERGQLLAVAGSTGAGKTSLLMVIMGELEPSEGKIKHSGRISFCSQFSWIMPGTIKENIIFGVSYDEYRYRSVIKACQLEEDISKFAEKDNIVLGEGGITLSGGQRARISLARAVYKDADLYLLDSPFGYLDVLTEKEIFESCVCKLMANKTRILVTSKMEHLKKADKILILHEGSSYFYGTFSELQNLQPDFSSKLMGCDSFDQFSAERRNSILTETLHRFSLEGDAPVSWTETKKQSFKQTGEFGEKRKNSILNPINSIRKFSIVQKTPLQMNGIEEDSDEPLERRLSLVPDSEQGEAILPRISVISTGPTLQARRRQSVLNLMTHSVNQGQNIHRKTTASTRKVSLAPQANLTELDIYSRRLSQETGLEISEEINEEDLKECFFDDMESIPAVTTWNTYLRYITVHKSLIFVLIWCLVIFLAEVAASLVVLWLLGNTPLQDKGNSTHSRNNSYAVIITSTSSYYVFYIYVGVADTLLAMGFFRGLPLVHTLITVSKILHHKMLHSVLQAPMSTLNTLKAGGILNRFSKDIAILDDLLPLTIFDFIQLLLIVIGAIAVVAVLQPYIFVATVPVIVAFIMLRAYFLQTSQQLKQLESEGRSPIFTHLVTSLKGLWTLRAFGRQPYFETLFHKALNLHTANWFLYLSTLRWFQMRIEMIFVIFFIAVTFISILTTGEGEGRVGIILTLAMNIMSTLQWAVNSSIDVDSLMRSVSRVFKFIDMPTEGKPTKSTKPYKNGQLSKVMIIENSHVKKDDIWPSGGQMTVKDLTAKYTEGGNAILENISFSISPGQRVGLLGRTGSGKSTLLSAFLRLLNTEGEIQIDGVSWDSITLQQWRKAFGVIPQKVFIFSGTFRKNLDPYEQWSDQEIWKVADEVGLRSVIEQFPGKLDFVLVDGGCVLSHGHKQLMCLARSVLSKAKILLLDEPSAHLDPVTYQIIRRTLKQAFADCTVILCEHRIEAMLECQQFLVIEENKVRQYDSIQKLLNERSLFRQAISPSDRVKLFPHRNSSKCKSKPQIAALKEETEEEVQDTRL
In words: CHO-CFTR assay (FLIPR assay, same conditions as the T84 assay). It is filed as cell-based. The conditions noted are these: imidazole and triazole-containing compounds.

Setting [3] is: oxadiazole-containing compounds (a series), average of at least 2 runs unless annotated n = 1, read-out: IC50.
Setting [4] is: thiadiazole-containing compounds (Table 12), read-out: IC50.

pIC50: −log10 of the molar value. Read-outs that look alike come from different tables or passages of the source.

T1 sequence (P13569 whole entry): as above

For `O=C(NCCC(c1ccccc1)c1ccccc1)c1ncn(-c2cc(Cl)c(O)c(Cl)c2)n1` [31i, 1-(3,5-dichloro-4-hydroxyphenyl)-N-(3,3-diphenylpropyl)-1H-1,2,4-triazole-3-carboxamide], the IC50 in assay [1] came out at 1.67 µM; in assay [2] it was 12.9 µM.

Turning to `COCCOCCOCCOCCN(Cc1ccc(Oc2ccccc2)cc1)C(=O)c1ncn(-c2cc(Cl)c(O)c(Cl)c2)n1` [112i, 1-(3,5-dichloro-4-hydroxyphenyl)-N-(4-phenoxybenzyl)-N-(2,5,8,11-tetraoxatridecan-13-yl)-1H-1,2,4-triazole-3-carboxamide], the values for the concentration for half-maximal inhibition (IC50) in assay [1] and in assay [2] were 12.5 µM and 26.1 µM, respectively.

With `CC(C)(C)c1ccc(Oc2ccc(CNC(=O)c3ncn(-c4cc(Cl)c(O)c(Cl)c4)n3)cc2)cc1` [68i, N-(4-(4-tert-butylphenoxy)benzyl)-1-(3,5-dichloro-4-hydroxyphenyl)-1H-1,2,4-triazole-3-carboxamide], the IC50 is 5.34 µM in assay [1] and 19.1 µM in assay [2].

Consider `O=C(NCc1ccc(Cl)c(Cl)c1)c1ncn(-c2cc(Cl)c(O)c(Cl)c2)n1` [37i, 1-(3,5-dichloro-4-hydroxyphenyl)-N-(3,4-dichlorobenzyl)-1H-1,2,4-triazole-3-carboxamide], for which the IC50 in assay [1] came out at 2.67 µM; in assay [2], 5.71 µM.

For `CN(Cc1ccc(C(C)(C)C)cc1)C(=O)c1ncn(-c2cc(Cl)c(O)c(Cl)c2)n1` [1i, N-(4-tert-butylbenzyl)-1-(3,5-dichloro-4-hydroxyphenyl)-N-methyl-1H-1,2,4-triazole-3-carboxamide], the IC50 in assay [1] was 4.26 µM; in assay [2], 5.38 µM.

As to `CN(C)c1ccc(Oc2ccc(CNC(=O)c3ncn(-c4cc(Cl)c(O)c(Cl)c4)n3)cc2)cc1` [63i, 1-(3,5-dichloro-4-hydroxyphenyl)-N-(4-(4-(dimethylamino)phenoxy)benzyl)-1H-1,2,4-triazole-3-carboxamide], the IC50 in assay [1] was determined as 3.02 µM; in assay [2] it was 6.72 µM.

For `CC(C)N(Cc1cccc(OC(F)(F)F)c1)C(=O)c1ncn(-c2cc(Cl)c(O)c(Cl)c2)n1` [99i, 1-(3,5-dichloro-4-hydroxyphenyl)-N-isopropyl-N-(3-(trifluoromethoxy)benzyl)-1H-1,2,4-triazole-3-carboxamide], the figures for the IC50 in assay [1] and in assay [2] were 7.93 µM and 12 µM, respectively.

`O=C(NCc1ccc(Oc2cc(C(F)(F)F)cc(C(F)(F)F)c2)cc1)c1ncn(-c2cc(Cl)c(O)c(Cl)c2)n1` [62i, N-(4-(3,5-bis(trifluoromethyl)phenoxy)benzyl)-1-(3,5-dichloro-4-hydroxyphenyl)-1H-1,2,4-triazole-3-carboxamide]: in assay [2], the IC50 stood at 8.76 µM.

In assay [2], `CN(C)c1cccc(Oc2ccc(CNC(=O)c3ncn(-c4cc(Cl)c(O)c(Cl)c4)n3)cc2)c1` [64i, 1-(3,5-dichloro-4-hydroxyphenyl)-N-(4-(3-(dimethylamino)phenoxy)benzyl)-1H-1,2,4-triazole-3-carboxamide] gave an IC50 of 4.81 µM.

`CN(Cc1cccc(Oc2ccccn2)c1)C(=O)c1nc(-c2cc(Cl)c(O)c(Cl)c2)no1` [178a, 3-(3,5-dichloro-4-hydroxyphenyl)-N-methyl-N-(3-(pyridin-2-yloxy)benzyl)-1,2,4-oxadiazole-5-carboxamide]: in assay [1] (setting [3]), the pIC50 was 5.10.

Turning to `Oc1c(Cl)cc(-c2nnc(COc3ccc(F)cc3Cl)s2)cc1Cl` [2h, 2,6-dichloro-4(5-((2-chloro-4-fluorophenoxy)methyl)-1,3,4-thiadiazol-2-yl)phenol], in assay [1] (setting [4]), the pIC50 was 5.25.

For `Oc1c(Cl)cc(-c2nnc(Oc3ccc(Oc4ccccc4)cc3)s2)cc1Cl` [10h, 2,6-dichloro-4-(5-(4-phenoxyphenoxy)-1,3,4-thiadiazol-2-yl)phenol], the pIC50 in assay [1] (setting [4]) is 4.68.

For `O=C(c1nc(-c2cc(Cl)c(O)c(Cl)c2)no1)N(Cc1cccnc1)Cc1cccnc1` [162a, 3-(3,5-dichloro-4-hydroxyphenyl)-N,N-bis(pyridin-3-ylmethyl)-1,2,4-oxadiazole-5-carboxamide], in assay [1] (setting [3]), the pIC50 was 5.03.
